What was measured:
Test in all cases: Bliss excess, mean over the matrix (fraction); higher = more synergy
[1] = tested on: COR-L23 (Non-Small Cell Lung Carcinoma)
Method in brief: (§1)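 Cell lines in DMEM/F12 or RPMI with 10% FBS were plated in 1536-well plates, held 24 hours at 37°C, 5% CO2, then given two-drug dose matrices for 72 hours (DMSO typically 0.2%). Viability was read by CellTiter-Glo 2.0 luminescence and scaled as inhibition from 0 (vehicle wells) to 1 (blank wells). Combination Emax is the second-highest inhibition in the matrix; Bliss excess is observed combination effect minus expected EA + EB − EA·EB, EA and EB being single-agent effects.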

[2] = tested on: CTV-1 (T-Lymphoblastic Leukemia)
Method in brief: as §1

[3] = tested on: DB (B-Cell Non-Hodgkin's Lymphoma)
Method in brief: as §1

[4] = tested on: DOV13 (Ovarian Carcinoma)
Method in brief: as §1

[5] = tested on: G-292-Clone-A141B1 (Osteosarcoma)
Method in brief: as §1

[6] = tested on: HCC2157 (Breast Carcinoma)
Method in brief: as §1

[7] = tested on: IHH-4 (Thyroid Gland Carcinoma)
Method in brief: as §1

[8] = tested on: KM-H2 (Hodgkin's Lymphoma)
Method in brief: as §1

[9] = tested on: LU-99A (Non-Small Cell Lung Carcinoma)
Method in brief: as §1

[10] = tested on: MDA-MB-231 (Breast Carcinoma)
Method in brief: as §1

[11] = tested on: NALM-6 (B-Lymphoblastic Leukemia)
Method in brief: as §1

[12] = tested on: NCI-H1694 (Small Cell Lung Carcinoma)
Method in brief: as §1

NCI-H2369 (Mesothelioma) = tested on: NCI-H2369 (Mesothelioma)
Method in brief: as §1

NCI-H2595 (Mesothelioma) = tested on: NCI-H2595 (Mesothelioma)
Method in brief: as §1

SN12C (Kidney Carcinoma) = tested on: SN12C (Kidney Carcinoma)
Method in brief: as §1

[13] = tested on: SNU-C5 (Colorectal Carcinoma)
Method in brief: as §1

[14] = tested on: SW1088 (Low Grade Glioma)
Method in brief: as §1

[15] = tested on: SW1990 (Pancreatic Carcinoma)
Method in brief: as §1

[16] = tested on: SW780 (Bladder Carcinoma)
Method in brief: as §1

[17] = tested on: TE-5 (Esophageal Squamous Cell Carcinoma)
Method in brief: as §1

Row | Compound | Bliss excess [1] | Bliss excess [2] | Bliss excess [3] | Bliss excess [4] | Bliss excess [5] | Bliss excess [6] | Bliss excess [7] | Bliss excess [8] | Bliss excess [9] | Bliss excess [10] | Bliss excess [11] | Bliss excess [12] | Bliss excess (NCI-H2369 (Mesothelioma)) | Bliss excess (NCI-H2595 (Mesothelioma)) | Bliss excess (SN12C (Kidney Carcinoma)) | Bliss excess [13] | Bliss excess [14] | Bliss excess [15] | Bliss excess [16] | Bliss excess [17]
1 | Cc1cc2ncnn2cc1Nc1ncc2c(n1)n(C1CCOCC1)c(=O)n2C [AZD7648] + CN(C)CCCOc1ccc(-c2ccc3ncc4c(c3c2)n(C2CCOCC2)c(=O)n4C)cn1 [AZD0156] (first compound max 10 µM, 7x7, partner max 1 µM) | -0.0212 | 0.0449 | -0.0402 | -0.0169 | -0.0261 | 0.0081 | 0.0352 | 0.0208 | -0.0208 | 0.0146 | -0.0184 | 0.0062 | 0.0327 | -0.0373 | -0.0388 | 0.0202 | -0.0698 | -0.0182 | -0.0069 | -0.0362
2 | CC(=O)c1c(C)c2cnc(Nc3ccc(N4CCNCC4)cn3)nc2n(C2CCCC2)c1=O [Palbociclib] + Cc1c2c(nn1C)CSCc1cc(n(C)n1)CSc1cc(c3ccccc3c1)OCCCc1c(C(=O)O)n(C)c3c-2c(Cl)ccc13 [AZD5991] (first compound max 10 µM, 7x7, partner max 1 µM) | -0.0472 | -0.0096 | 0.0577 | -0.0567 | -0.0371 | -0.0106 | -0.0171 | -0.0228 | -0.046 | -0.0424 | 0.0147 | -0.073 | -0.0593 | -0.0622 | -0.0358 | -0.0377 | 0.0212 | -0.0427 | -0.0441 | -0.0284
3 | COc1nnc2ccc(N3CCC(c4ccc(OCCN5CCN(C)C(=O)[C@H]5C)cc4)CC3)nn12 [AZD5153] + Cc1c2c(nn1C)CSCc1cc(n(C)n1)CSc1cc(c3ccccc3c1)OCCCc1c(C(=O)O)n(C)c3c-2c(Cl)ccc13 [AZD5991] (first compound max 1 µM, 7x7, partner max 1 µM) | -0.0296 | -0.0515 | 0.0507 | -0.108 | -0.032 | 0.0049 | -0.0329 | -0.0495 | 0.0087 | -0.057 | -0.0732 | 0.0992 | -0.0499 | 0.015 | -0.0285 | -0.0417 | 0.0112 | -0.0477 | -0.0187 | -0.0158
4 | NC1(C(=O)N[C@@H](CCO)c2ccc(Cl)cc2)CCN(c2ncnc3[nH]ccc23)CC1 [Capivasertib] + CC(=O)c1c(C)c2cnc(Nc3ccc(N4CCNCC4)cn3)nc2n(C2CCCC2)c1=O [Palbociclib] (first compound max 10 µM, 7x7, partner max 10 µM) | -0.0252 | 0.0198 | 0.0453 | 0.0055 | 0.0166 | -0.0052 | 0.0815 | 0.0484 | -0.0189 | -0.0024 | -0.0107 | -0.0472 | 0.0133 | -0.0248 | -0.0265 | -0.0112 | 0.0361 | -0.0404 | -0.0119 | 0.0142
5 | C=CCn1c(=O)c2cnc(Nc3ccc(N4CCN(C)CC4)cc3)nc2n1-c1cccc(C(C)(C)O)n1 [AZD1775] + C[C@@H]1COCCN1C2=NC(=NC(=C2)C3(CC3)[S@](=N)(=O)C)C4=C5C=CNC5=NC=C4 [AZD6738] (first compound max 1 µM, partner max 10 µM) | 0.0462 | 0.0737 | -0.0023 | 0.0366 | -0.0665 | 0.0218 | 0.0534 | 0.0647 | -0.0377 | 0.0726 | 0.0491 | 0.0818 | -0.0395 | -0.0206 | -0.0359 | -0.0173 | -0.0902 | -0.0352 | -0.0092 | -0.0843
6 | COc1nnc2ccc(N3CCC(c4ccc(OCCN5CCN(C)C(=O)[C@H]5C)cc4)CC3)nn12 [AZD5153] + C=CCn1c(=O)c2cnc(Nc3ccc(N4CCN(C)CC4)cc3)nc2n1-c1cccc(C(C)(C)O)n1 [AZD1775] (first compound max 1 µM, partner max 1 µM) | -0.0459 | 0.0151 | -0.0996 | -0.0561 | -0.0475 | -0.0734 | -0.0294 | -0.101 | -0.02 | -0.0768 | -0.0559 | -0.0205 | -0.0392 | -0.0353 | -0.128 | -0.0291 | -0.0364 | -0.0567 | -0.0163 | -0.0148
7 | Cc1cc2ncnn2cc1Nc1ncc2c(n1)n(C1CCOCC1)c(=O)n2C [AZD7648] + C[C@@H]1COCCN1C2=NC(=NC(=C2)C3(CC3)[S@](=N)(=O)C)C4=C5C=CNC5=NC=C4 [AZD6738] (first compound max 10 µM, 7x7, partner max 10 µM) | -0.0121 | -0.0024 | -0.0509 | -0.0039 | 0.0274 | -0.0528 | 0.0366 | 0.0227 | 0.0077 | 0.037 | -0.0561 | 0.0194 | 0.008 | -0.0059 | 0.0264 | 0.0455 | 0.0289 | 0.0049 | 0.0476 | -0.0093
8 | CN(CCO)CC[C@H](CSc1ccccc1)Nc1ccc(S(=O)(=O)NC(=O)c2ccc(N3CCC([C@@H](O)c4ccccc4-c4ccc(Cl)cc4)CC3)cc2)cc1S(=O)(=O)C(F)(F)F [AZD4320] + C[C@@H](Nc1cc(F)cc(F)c1)c1cc(C(=O)N(C)C)cc2c(=O)cc(N3CCOCC3)oc12 [AZD8186] (first compound max 1 µM, 7x7, partner max 3 µM) | -0.0063 | 0.0326 | -0.0096 | -0.0141 | -0.0014 | 0.0774 | 0.0438 | 0.0237 | -0.0296 | 0.0174 | 0.0514 | 0.0454 | -0.0251 | 0.0344 | -0.0193 | -0.0704 | 0.0357 | 0.0048 | 0.0084 | -0.0144
9 | CN(CCO)CC[C@H](CSc1ccccc1)Nc1ccc(S(=O)(=O)NC(=O)c2ccc(N3CCC([C@@H](O)c4ccccc4-c4ccc(Cl)cc4)CC3)cc2)cc1S(=O)(=O)C(F)(F)F [AZD4320] + CCN(CCO)CCCOc1ccc2c(Nc3cc(CC(=O)Nc4cccc(F)c4)[nH]n3)ncnc2c1 [AZD2811] (first compound max 1 µM, 7x7, partner max 1 µM) | -0.0343 | 0.0053 | 0.0983 | 0.0816 | 0.0019 | 0.0907 | -0.0372 | -0.0035 | 0.0564 | 0.0602 | 0.0868 | 0.169 | 0.0005 | -0.032 | -0.0249 | 0.0121 | -0.0659 | -0.0214 | 0.028 | 0.0379
10 | CN(CCO)CC[C@H](CSc1ccccc1)Nc1ccc(S(=O)(=O)NC(=O)c2ccc(N3CCC([C@@H](O)c4ccccc4-c4ccc(Cl)cc4)CC3)cc2)cc1S(=O)(=O)C(F)(F)F [AZD4320] + C[C@@H]1COCCN1C2=NC(=NC(=C2)C3(CC3)[S@](=N)(=O)C)C4=C5C=CNC5=NC=C4 [AZD6738] (first compound max 1 µM, 7x7, partner max 10 µM) | -0.0468 | -0.0498 | 0.0249 | -0.0448 | -0.0265 | 0.0014 | -0.0231 | 0.0381 | -0.0464 | -0.0571 | 0.0379 | 0.0238 | 0.0246 | -0.0222 | -0.0499 | -0.0131 | -0.0732 | 0.0112 | -0.0478 | 0.0256
11 | CN(C)CCCOc1ccc(-c2ccc3ncc4c(c3c2)n(C2CCOCC2)c(=O)n4C)cn1 [AZD0156] + C[C@@H]1COCCN1C2=NC(=NC(=C2)C3(CC3)[S@](=N)(=O)C)C4=C5C=CNC5=NC=C4 [AZD6738] (first compound max 1 µM, 7x7, partner max 10 µM) | 0.045 | -0.0115 | -0.0151 | -0.0395 | -0.0091 | 0.0548 | 0.0537 | 0.0658 | -0.0423 | 0.0105 | -0.0082 | 0.0229 | -0.0253 | -0.0438 | -0.0795 | 0.0298 | -0.0113 | -0.0202 | -0.0372 | -0.0609

Reference: the supplement of paper PMC11061612
